Among the data in patent US20250312352A1, “GLP-1R MODULATING COMPOUNDS” (Gilead Sciences, Inc., priority 2021, published 2025) are EC50 values, retold here.

Broadly, the EC50 is the concentration at which the effect is half-maximal. A lower EC50 goes with a more potent agent.

Each structure is given as a SMILES string.

For this test, the target named is T1, GLP-1R (Homo sapiens, UniProt P43220).
T1 construct: host or cells: CHO cells
As to the kind of experiment: GLP-1R activation cAMP assay (Assay 1 or Assay 2). Format: cell-based. As to conditions: cAMP increase in CHO cells stably expressing GLP-1R; compounds run on one of the two cAMP assays. Put shortly: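 EC50 values come from a sigmoidal fit of HTRF-detected cAMP rise versus log agonist concentration. GLP-1R-expressing CHO cells, equilibrated 1 h at 37 °C in HBSS with HEPES and BSA, received a 10-point compound dose series for 30 min before detection.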
For orientation: cAMP levels reflect the balance of adenylyl cyclase and phosphodiesterase activity.

T1 sequence (P43220 24-463): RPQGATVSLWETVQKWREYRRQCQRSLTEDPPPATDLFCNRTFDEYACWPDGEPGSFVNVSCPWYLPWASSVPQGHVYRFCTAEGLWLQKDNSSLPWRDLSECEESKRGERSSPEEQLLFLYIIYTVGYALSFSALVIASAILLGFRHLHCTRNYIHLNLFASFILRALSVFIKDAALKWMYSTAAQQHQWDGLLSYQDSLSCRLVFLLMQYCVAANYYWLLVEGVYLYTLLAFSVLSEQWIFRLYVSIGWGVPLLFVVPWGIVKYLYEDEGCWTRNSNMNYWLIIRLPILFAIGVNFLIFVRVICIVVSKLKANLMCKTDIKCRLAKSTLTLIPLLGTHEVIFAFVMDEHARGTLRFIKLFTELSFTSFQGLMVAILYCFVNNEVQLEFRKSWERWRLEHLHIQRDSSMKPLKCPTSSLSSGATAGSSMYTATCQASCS

With `Cn1cc(C#Cc2ccc(COc3cccc(-c4cc(F)c(Cc5nc6c(F)cc(C(=O)O)cc6n5C[C@@H]5CCO5)cc4F)n3)c(F)c2)cn1` [Example 151, (S)-2-(2,5-difluoro-4-(6-((2-fluoro-4-((1-methyl-1H-pyrazol-4-yl)ethynyl)benzyl)oxy)pyridin-2-yl)benzyl)-4-fluoro-1-(oxetan-2-ylmethyl)-1H-benzo[d]imidazole-6-carboxylic acid], a half-maximal effect (EC50) was put at 100 pM.

The compound `O=C(O)c1cc(F)c2nc(Cc3cc(F)c(-c4cccc(OCc5ccc(C#Cc6cnc(N7CC8CCC(C7)N8C7COC7)nc6)cc5F)n4)cc3F)n(C[C@@H]3CCO3)c2c1` [Example 152, 2-(2,5-difluoro-4-(6-((2-fluoro-4-((2-(8-(oxetan-3-yl)-3,8-diazabicyclo[3.2.1]octan-3-yl)pyrimidin-5-yl)ethynyl)benzyl)oxy)pyridin-2-yl)benzyl)-4-fluoro-1-(((S)-oxetan-2-yl)methyl)-1H-benzo[d]imidazole-6-carboxylic acid] registered a half-maximal effective concentration (EC50) of 680 pM. Compared with the last compound, the EC50 is about 6.8-fold higher.

As for `Cc1cc(Cc2nc3c(F)cc(C(=O)O)cc3n2C[C@@H]2CCO2)c(F)cc1-c1cccc(OCc2ccc(C#Cc3cnn(C)c3)cc2F)n1` [Example 153, (S)-4-fluoro-2-(2-fluoro-4-(6-((2-fluoro-4-((1-methyl-1H-pyrazol-4-yl)ethynyl)benzyl)oxy)pyridin-2-yl)-5-methylbenzyl)-1-(oxetan-2-ylmethyl)-1H-benzo[d]imidazole-6-carboxylic acid], the EC50 was determined as 360 pM. Compared with the last compound, the EC50 is about 1.9-fold lower.

Regarding `Cn1cc(C#Cc2cnc(COc3cccc(-c4cc(F)c(Cc5nc6ccc(C(=O)O)cc6n5C[C@@H]5CCO5)cc4F)n3)nc2)cn1` [Example 154, (S)-2-(2,5-difluoro-4-(6-((5-((1-methyl-1H-pyrazol-4-yl)ethynyl)pyrimidin-2-yl)methoxy)pyridin-2-yl)benzyl)-1-(oxetan-2-ylmethyl)-1H-benzo[d]imidazole-6-carboxylic acid], the EC50 is 520 pM.

For `Cn1cc(C#Cc2cnc(COc3cccc(-c4cc(F)c(Cc5nc6ccc(C(=O)O)cc6n5C[C@@H]5CCO5)cc4F)n3)cn2)cn1` [Example 155, (S)-2-(2,5-difluoro-4-(6-((5-((1-methyl-1H-pyrazol-4-yl)ethynyl)pyrazin-2-yl)methoxy)pyridin-2-yl)benzyl)-1-(oxetan-2-ylmethyl)-1H-benzo[d]imidazole-6-carboxylic acid], a half-maximal effect (EC50) was put at 830 pM.

Consider `Cn1cncc1C#Cc1cnc(COc2cccc(-c3cc(F)c(Cc4nc5ccc(C(=O)O)cc5n4C[C@@H]4CCO4)cc3F)n2)cn1` [Example 156, (S)-2-(2,5-difluoro-4-(6-((5-((1-methyl-1H-imidazol-5-yl)ethynyl)pyrazin-2-yl)methoxy)pyridin-2-yl)benzyl)-1-(oxetan-2-ylmethyl)-1H-benzo[d]imidazole-6-carboxylic acid], for which the EC50 is 1190 pM.

The compound `N#CC1(Cn2cc(-c3ccc(COc4cccc(-c5cc(F)c(Cc6nc7ccc(C(=O)O)cc7n6C[C@@H]6CCO6)cc5F)n4)c(F)c3)cn2)CC1` [Example 159, (S)-2-(4-(6-((4-(1-((1-cyanocyclopropyl)methyl)-1H-pyrazol-4-yl)-2-fluorobenzyl)oxy)pyridin-2-yl)-2,5-difluorobenzyl)-1-(oxetan-2-ylmethyl)-1H-benzo[d]imidazole-6-carboxylic acid] returned a concentration giving a half-maximal response (EC50) of 180 pM.

`O=C(O)c1ccc2nc(Cc3cc(F)c(-c4cccc(OCc5ccc(-c6cnc(C7CC7)o6)cc5F)n4)cc3F)n(C[C@@H]3CCO3)c2c1` [Example 160, (S)-2-(4-(6-((4-(2-cyclopropyloxazol-5-yl)-2-fluorobenzyl)oxy)pyridin-2-yl)-2,5-difluorobenzyl)-1-(oxetan-2-ylmethyl)-1H-benzo[d]imidazole-6-carboxylic acid] had an EC50 of 200 pM. This EC50 and that of the compound before are within 1.5-fold of each other.

The compound `O=C(O)c1ccc2nc(Cc3cc(F)c(-c4cccc(OCc5cnc(-c6cnn(C7CC7)c6)cc5F)n4)cc3F)n(C[C@@H]3CCO3)c2c1` [Example 161, (S)-2-(4-(6-((6-(1-cyclopropyl-1H-pyrazol-4-yl)-4-fluoropyridin-3-yl)methoxy)pyridin-2-yl)-2,5-difluorobenzyl)-1-(oxetan-2-ylmethyl)-1H-benzo[d]imidazole-6-carboxylic acid] gave an EC50 of 80 pM.

The compound `O=C(O)c1ccc2nc(Cc3cc(F)c(-c4cccc(OCc5cnc(-c6cnn(C7COC7)c6)cc5F)n4)cc3F)n(C[C@@H]3CCO3)c2c1` [Example 162, (S)-2-(2,5-difluoro-4-(6-((4-fluoro-6-(1-(oxetan-3-yl)-1H-pyrazol-4-yl)pyridin-3-yl)methoxy)pyridin-2-yl)benzyl)-1-(oxetan-2-ylmethyl)-1H-benzo[d]imidazole-6-carboxylic acid] yielded an EC50 of 160 pM.

With `Cc1cc(Cc2nc3c(F)cc(C(=O)O)cc3n2C[C@@H]2CCO2)c(F)cc1-c1cccc(OCc2cnc(-c3cnn(C4CC4)c3)cc2Cl)n1` [Example 163, (S)-2-(4-(6-((4-chloro-6-(1-cyclopropyl-1H-pyrazol-4-yl)pyridin-3-yl)methoxy)pyridin-2-yl)-2-fluoro-5-methylbenzyl)-4-fluoro-1-(oxetan-2-ylmethyl)-1H-benzo[d]imidazole-6-carboxylic acid], the response was half-maximal at 700 pM (EC50).

Turning to `O=C(O)c1ccc2nc(Cc3cc(F)c(-c4cccc(OCc5ccc(-c6cnn(C7COC7)c6)cc5F)n4)cc3F)n(C[C@@H]3CCO3)c2c1` [Example 164, (S)-2-(2,5-difluoro-4-(6-((2-fluoro-4-(1-(oxetan-3-yl)-1H-pyrazol-4-yl)benzyl)oxy)pyridin-2-yl)benzyl)-1-(oxetan-2-ylmethyl)-1H-benzo[d]imidazole-6-carboxylic acid], a half-maximal response (EC50) required 100 pM.

`NC(=O)c1ncc(COc2cccc(-c3cc(F)c(Cc4nc5ccc(C(=O)O)cc5n4C[C@@H]4CCO4)cc3F)n2)s1` [Example 165, (S)-2-(4-(6-((2-carbamoylthiazol-5-yl)methoxy)pyridin-2-yl)-2,5-difluorobenzyl)-1-(oxetan-2-ylmethyl)-1H-benzo[d]imidazole-6-carboxylic acid] yielded an EC50 of 2000 pM.

With `N#Cc1ncc(COc2cccc(-c3cc(F)c(Cc4nc5ccc(C(=O)O)cc5n4C[C@@H]4CCO4)cc3F)n2)s1` [Example 166, (S)-2-(4-(6-((2-cyanothiazol-5-yl)methoxy)pyridin-2-yl)-2,5-difluorobenzyl)-1-(oxetan-2-ylmethyl)-1H-benzo[d]imidazole-6-carboxylic acid], the 50% effective concentration (EC50) was 620 pM. Against the preceding compound, the EC50 is about 3.2-fold lower.

As for `O=C(O)c1ccc2nc(Cc3cc(F)c(-c4cccc(OCc5cncs5)n4)cc3F)n(C[C@@H]3CCO3)c2c1` [Example 167, (S)-2-(2,5-difluoro-4-(6-(thiazol-5-ylmethoxy)pyridin-2-yl)benzyl)-1-(oxetan-2-ylmethyl)-1H-benzo[d]imidazole-6-carboxylic acid], the EC50 stood at 870 pM.

For `N#Cc1ncc(COc2cccc(-c3cc(F)c(Cc4nc5ccc(C(=O)O)cc5n4C[C@@H]4CCO4)cc3F)n2)o1` [Example 168, (S)-2-(4-(6-((2-cyanooxazol-5-yl)methoxy)pyridin-2-yl)-2,5-difluorobenzyl)-1-(oxetan-2-ylmethyl)-1H-benzo[d]imidazole-6-carboxylic acid], the EC50 amounted to 21300 pM.

For `O=C(O)c1ccc2nc(Cc3cc(F)c(-c4cccc(OCc5cnco5)n4)cc3F)n(C[C@@H]3CCO3)c2c1` [Example 169, (S)-2-(2,5-difluoro-4-(6-(oxazol-5-ylmethoxy)pyridin-2-yl)benzyl)-1-(oxetan-2-ylmethyl)-1H-benzo[d]imidazole-6-carboxylic acid], the midpoint of the response, the EC50, lay at 11800 pM. Compared with the last compound, the EC50 is about 1.8-fold lower.

With `N#Cc1nc(COc2cccc(-c3cc(F)c(Cc4nc5ccc(C(=O)O)cc5n4C[C@@H]4CCO4)cc3F)n2)cs1` [Example 170, (S)-2-(4-(6-((2-cyanothiazol-4-yl)methoxy)pyridin-2-yl)-2,5-difluorobenzyl)-1-(oxetan-2-ylmethyl)-1H-benzo[d]imidazole-6-carboxylic acid], a half-maximal effect (EC50) was put at 8290 pM.

Compound `NC(=O)c1ccc(COc2cccc(-c3cc(F)c(Cc4nc5ccc(C(=O)O)cc5n4C[C@@H]4CCO4)cc3F)n2)o1` [Example 171, (S)-2-(4-(6-((5-carbamoylfuran-2-yl)methoxy)pyridin-2-yl)-2,5-difluorobenzyl)-1-(oxetan-2-ylmethyl)-1H-benzo[d]imidazole-6-carboxylic acid] came in with an EC50 of 2940 pM.

In the case of `NC(=O)c1cc(F)c(COc2cccc(-c3cc(F)c(Cc4nc5ccc(C(=O)O)cc5n4C[C@@H]4CCO4)cc3F)n2)cc1F` [Example 172, (S)-2-(4-(6-((4-carbamoyl-2,5-difluorobenzyl)oxy)pyridin-2-yl)-2,5-difluorobenzyl)-1-(oxetan-2-ylmethyl)-1H-benzo[d]imidazole-6-carboxylic acid], a half-maximal response (EC50) required 2570 pM. This EC50 and that of the compound before are within 1.5-fold of each other.

On to `NC(=O)c1ccc(COc2cccc(-c3ccc(Cc4nc5ccc(C(=O)O)cc5n4C[C@@H]4CCO4)cc3F)n2)cn1` [Example 173, (S)-2-(4-(6-((6-carbamoylpyridin-3-yl)methoxy)pyridin-2-yl)-3-fluorobenzyl)-1-(oxetan-2-ylmethyl)-1H-benzo[d]imidazole-6-carboxylic acid], for which the concentration for a half-maximal effect (EC50) turned out to be 23200 pM.

Regarding `COCCn1c(Cc2cc(F)c(-c3cccc(OCc4ccc(C(N)=O)nc4)n3)cc2F)nc2ccc(C(=O)O)cc21` [Example 174, 2-(4-(6-((6-carbamoylpyridin-3-yl)methoxy)pyridin-2-yl)-2,5-difluorobenzyl)-1-(2-methoxyethyl)-1H-benzo[d]imidazole-6-carboxylic acid], the EC50 was 40600 pM.

As for `N#CCNC(=O)c1ccc(COc2cccc(-c3cc(F)c(Cc4nc5ccc(C(=O)O)cc5n4C[C@@H]4CCO4)cc3F)n2)cn1` [Example 175, (S)-2-(4-(6-((6-((cyanomethyl)carbamoyl)pyridin-3-yl)methoxy)pyridin-2-yl)-2,5-difluorobenzyl)-1-(oxetan-2-ylmethyl)-1H-benzo[d]imidazole-6-carboxylic acid], the EC50 worked out at 110 pM.
